In PMC5433425 (PeerJ, 2017):
Where “and” joins values, the source holds several entries; their conditions need not be identical. Equal entries are not always repeated. Where two headings read alike, the source gives them in different places.

Assays:
[1] = system: E. coli AG100tet; assay: EtBr accumulation by real-time fluorometry; conditions: EtBr 2 µg/ml + inhibitor 80 µM
[2] = system: E. coli AG100; assay: Membrane permeability assay (Live/Dead BacLight)
[3] = system: E. coli AG100tet; assay: microbe, parasite or virus in culture; assay type: cell-based, Escherichia coli; conditions: Escherichia coli, AG100TET
Protocol: (§1) The assays were performed in triplicate and the MIC value was given as result of at least two concordant values.

[4] = system: E. coli AG100; assay: Membrane potential assay (BacLight, DiOC2(3)); conditions: 80 µM
[5] = system: E. coli AG100; assay: Checkerboard synergy assay (MIC of antibiotics/EtBr with efflux inhibitor); assay type: cell-based, Escherichia coli; conditions: for MIC: Escherichia coli
Protocol: as §1

SMILES: CN(C)CCCN1c2ccccc2Sc2ccc(Cl)cc21 [CPZ, chlorpromazine]
- EtBr fluorescence ([1]; cycle 1): 9.834
- EtBr fluorescence ([1]; cycle 2): 10.8502
- EtBr fluorescence ([1]; cycle 3): 12.3051
- EtBr fluorescence ([1]; cycle 4): 13.857
- EtBr fluorescence ([1]; cycle 5): 15.5494
- EtBr fluorescence ([1]; cycle 6): 17.3058
- EtBr fluorescence ([1]; cycle 7): 19.3992
- EtBr fluorescence ([1]; cycle 8): 20.8092
- EtBr fluorescence ([1]; cycle 9): 23.1444
- EtBr fluorescence ([1]; cycle 10): 25.4323
- EtBr fluorescence ([1]; cycle 11): 27.4946
- EtBr fluorescence ([1]; cycle 12): 29.7214
- EtBr fluorescence ([1]; cycle 13): 31.9876
- EtBr fluorescence ([1]; cycle 14): 34.2074
- EtBr fluorescence ([1]; cycle 15): 36.9702
- EtBr fluorescence ([1]; cycle 16): 39.6127
- EtBr fluorescence ([1]; cycle 17): 42.5123
- EtBr fluorescence ([1]; cycle 18): 45.4508
- EtBr fluorescence ([1]; cycle 19): 48.5847
- EtBr fluorescence ([1]; cycle 20): 50.7436
- EtBr fluorescence ([1]; cycle 21): 54.1808
- EtBr fluorescence ([1]; cycle 22): 57.0724
- EtBr fluorescence ([1]; cycle 23): 59.5808
- EtBr fluorescence ([1]; cycle 24): 63.2028
- EtBr fluorescence ([1]; cycle 25): 66.0088
- EtBr fluorescence ([1]; cycle 26): 69.6637
- EtBr fluorescence ([1]; cycle 27): 72.1
- EtBr fluorescence ([1]; cycle 28): 75.2829
- EtBr fluorescence ([1]; cycle 29): 78.0686
- EtBr fluorescence ([1]; cycle 30): 80.8335
- BacLight Live/Dead fluorescence 485/20,528/20 ([2]; 80 uM, raw well reading): 104 and 88
- BacLight Live/Dead fluorescence 485/20,590/35 ([2]; 80 uM, raw well reading): 30 and 24
- membrane permeability increase / membrane permeation ([2]; AG100, 80 µM): 18%
- MIC ([3]; read-out: MIC of EtBr in presence of the efflux inhibitor, AG100tet, inhibitor 40 μM): 256 µg/mL
- MIC ([3]; read-out: MIC of EtBr in presence of the efflux inhibitor, AG100tet, inhibitor 80 μM): 128 µg/mL
- MIC ([3]; read-out: MIC of EtBr in presence of the efflux inhibitor, AG100tet, inhibitor 160 μM): 128 µg/mL
- MIC ([3]; read-out: MIC of OFX in presence of the efflux inhibitor, AG100tet, inhibitor 40 μM): 0.5 µg/mL
- MIC ([3]; read-out: MIC of OFX in presence of the efflux inhibitor, AG100tet, inhibitor 80 μM): 0.5 µg/mL
- MIC ([3]; read-out: MIC of OFX in presence of the efflux inhibitor, AG100tet, inhibitor 160 μM): 0.25 µg/mL
- MIC ([3]; read-out: MIC of OXA in presence of the efflux inhibitor, AG100tet, inhibitor 40 μM): > 2050 µg/mL
- MIC ([3]; read-out: MIC of OXA in presence of the efflux inhibitor, AG100tet, inhibitor 80 μM): 2050 µg/mL
- MIC ([3]; read-out: MIC of OXA in presence of the efflux inhibitor, AG100tet, inhibitor 160 μM): 1020 µg/mL
- MIC ([3]; read-out: MIC of TET in presence of the efflux inhibitor, AG100tet, inhibitor 40 μM): 32 µg/mL
- MIC ([3]; read-out: MIC of TET in presence of the efflux inhibitor, AG100tet, inhibitor 80 μM): 32 µg/mL
- MIC ([3]; read-out: MIC of TET in presence of the efflux inhibitor, AG100tet, inhibitor 160 μM): 16 µg/mL
- membrane depolarization [4]: similarly to that caused by PQQ4R
- MIC of OFX in presence of the efflux inhibitor ([5]; AG100, inhibitor 80 μM): 0.125 µg/mL
- MIC of OXA in presence of the efflux inhibitor ([5]; AG100, inhibitor 80 μM): 512 µg/mL
- MIC ([5]; AG100, AG100, inhibitor 160 μM, read-out: MIC of OXA in presence of the efflux inhibitor): ≤ 1 µg/mL
- MIC ([5]; AG100, read-out: MIC of EtBr in presence of the efflux inhibitor): 25 µg/mL
- MIC ([5]; AG100, read-out: MIC of EtBr in presence of the efflux inhibitor, AG100, inhibitor 40 μM): 100 µg/mL
- MIC ([5]; AG100, read-out: MIC of EtBr in presence of the efflux inhibitor, AG100, inhibitor 160 μM): ≤ 0.39 µg/mL
- MIC ([5]; AG100, read-out: MIC of OFX in presence of the efflux inhibitor): 0.125 µg/mL
- MIC ([5]; AG100, read-out: MIC of OFX in presence of the efflux inhibitor, AG100, inhibitor 160 μM): 0.003 µg/mL
- MIC ([5]; AG100, read-out: MIC of OXA in presence of the efflux inhibitor): 512 µg/mL
- MIC ([5]; AG100, read-out: MIC of TET in presence of the efflux inhibitor, AG100, inhibitor 40 μM): 1 µg/mL
- MIC ([5]; AG100, read-out: MIC of TET in presence of the efflux inhibitor, AG100, inhibitor 80 μM): 0.5 µg/mL
- MIC ([5]; AG100, read-out: MIC of TET in presence of the efflux inhibitor, AG100, inhibitor 160 μM): ≤ 0.03 µg/mL
